Source: article doi:10.1101/735704v2, “Selectivity filter instability dominates the low intrinsic activity of the TWIK-1 K2P K^+ Channel” (biorxiv, 2019)

Molecular target: T1, TWIK-1* (K2P1.1/KCNK1, I293A/I294A trafficking mutant) (Homo sapiens, UniProt O00180, I293A/I294A)
T1 construct: full-length channel with mutated di-isoleucine endocytic retention motif (I293A/I294A), subcloned into pFAW, mRNA-injected Xenopus oocytes, giant excised inside-out patches; homodimer
T1 sequence (O00180 1-336 I293A/I294A): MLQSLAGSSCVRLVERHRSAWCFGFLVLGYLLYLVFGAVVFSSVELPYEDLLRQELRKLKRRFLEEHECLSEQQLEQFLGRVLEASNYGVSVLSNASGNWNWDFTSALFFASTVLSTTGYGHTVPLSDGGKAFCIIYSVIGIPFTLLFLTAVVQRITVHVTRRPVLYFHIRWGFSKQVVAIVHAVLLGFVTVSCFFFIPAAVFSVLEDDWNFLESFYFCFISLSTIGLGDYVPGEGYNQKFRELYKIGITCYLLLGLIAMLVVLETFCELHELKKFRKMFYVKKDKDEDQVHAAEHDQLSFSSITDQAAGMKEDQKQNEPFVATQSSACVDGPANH
Assay: giant excised inside-out patch electrophysiology, Xenopus oocytes, Hill fit
Type: cell-based

Q: Which IC50 does the source give for CCCCC[N+](CCCCC)(CCCCC)CCCCC [tetrapentylammonium] here?
A: Its IC50 is 3.3 ± 0.1 µM.
